Measured values: paper PMC11304236, “A Novel Drug Candidate for Sepsis Targeting Heparanase by Inhibiting Cytokine Storm” (Advanced Science, 2024)

Assays:
RAW264.7 macrophages = assay: Cell survival assay (CCK-8) in RAW264.7 macrophages; details: 50 to 200 µM
ICAM-1 and VCAM-1 = ICAM-1 and VCAM-1 on LPS-stimulated RAW264.7 macrophages by flow cytometry; type: cell-based, mouse; details: CV122 50 µM 3 h, LPS 5 µg mL−1 1 h
Experimental: (§1) Each group of mice was euthanized 24 h after LPS injection, spleens were harvested, red blood cells were lysed to detect splenocyte apoptosis, and the ratio of CD3^+CD4^+ T cells, CD3^+CD8^+ T cells, CD3^−CD19^+ B cells in spleen cells and lymph nodes quantified. Antibodies were: FITC‐Annexin V and PI; APC‐CD3, FITC‐CD4, PE‐CD8a, and PE‐CD19. Each group of mice was euthanized 12 h after LPS injection, Lung, kidney, and spleens were harvested, red blood cells were lysed to detect the ratio of macrophages in multiple organs, Antibodies were: FITC anti‐mouse F4/80; APC anti‐mouse CD86. Flow cytometry was used to quantify the adhesion molecules ICAM‐1 and VCAM‐1 on the surface of RAW264.7 cells and HUVECs. CV122 (50 µM) was incubated with the cells for 3 h, LPS (5 µg mL^−1) and TNF‐α (20 ng mL^−1) were used to stimulate the cells for 1 h, and the cells were collected. FITC anti‐mouse CD54 antibody and AF647 anti‐mouse CD106 antibody were incubated for 30 min at room temperature in the dark, PBS was added at 1000 rpm, and the cells were centrifuged for 7 min. A 200‐mesh copper mesh was used to filter the cells into a flow cytometer, and a flow cytometer (BD Biosciences) was used for detection.

CLP-induced septic mice = details: mouse, in vivo
HPA = HPA expression in tissues of LPS-induced septic mice (IHC, immunofluorescence, immunoblotting); type: in vivo, mouse; details: 24 h after LPS injection
Experimental: Lungs were harvested from LPS‐induced and CLP‐induced sepsis model mice, and frozen sections were prepared. HUVECs and RAW264.7 macrophages were incubated with CV122 for 3 h, and TNF‐α (20 ng mL^−1) and LPS (5 µg mL^−1) were used to stimulate cells for 1 h. Lung tissue, HUVECs, and RAW264.7 macrophages were fixed with 4% paraformaldehyde for 10 min before permeabilization with 0.5% Triton X‐100 for 10 min. The membrane was sealed with 4% skimmed milk powder and incubated at room temperature for 50 min. Primary antibodies were rabbit anti‐heparanase polyclonal antibodies overnight at 4 °C. The diluent of the secondary antibody FITC‐WGA‐lectin was kept at room temperature and protected from light for 1 h. Nuclei were stained with DAPI. After 120 s, images were acquired with a confocal microscope (LSM 800, Zeiss, Germany).
The lung, kidney, and liver tissues of mice were fixed in paraformaldehyde. Sections underwent endogenous peroxidase quenching and antigen retrieval followed by incubation with primary antibodies or isotype‐matched controls. […]
CV122 (50 µM) was incubated with HUVECs and RAW264.7 cells for 3 h, and LPS (5 µg mL^−1) and TNF‐α (20 ng mL^−1) were incubated for 1 h. […] The BCA method was used to quantify protein. […] Blots were developed with a chemiluminescent HRP substrate, and the protein bands were detected with a chemiluminescence imager (MiniChemi610).

HUVECs = assay: Cell survival assay (CCK-8) in HUVECs; type: cell-based, human; details: 50 to 200 µM
TNF-α, IL-6, IL-1β = assay: Cytokine ELISA in serum and organs of LPS-induced septic mice; type: in vivo, mouse
Experimental: For LPS‐induced sepsis model experiments, twenty male C57BL/6J mice were randomly divided into four groups (n = 5 in each group). Mice in group 1 were injected with 0.9% NaCl, while mice in groups 2–4 were injected intraperitoneally with LPS (20 mg kg^−1). After 30 min, mice in group 3 were injected with 40 mg kg^−1 CV122 and mice in group 4 were injected with 40 mg kg^−1 Suramin. After 3 h, blood was taken and the lungs, liver, spleen, kidney heart, and brain were taken. For CLP experiments, the mice were euthanized 24 h after the establishment of the sepsis model. Blood samples were collected from the eyeballs of mice, the lungs were taken. These organs were ground at 0.1 g mL^−1 in PBS, centrifuged and the supernatant collected. Serum and organ tissue supernatants were used to detect cytokine levels using the mouse TNF‐α, IL‐6, IL‐1β ELISA MAXTM Deluxe Set.

[1] = tested on: M1 macrophages (F4/80+CD86+); assay: Flow cytometry of M1 macrophages in organs of LPS-induced septic mice; type: in vivo, mouse; details: 12 h after LPS 40 mg/kg i.p.
Experimental: as §1
Figure S6. M1 macrophages in multiple organs of LPS-induced septic mice. […] All results are expressed as mean ± SD (n = 3), *p < 0.05,**p < 0.01, ***p < 0.001, ****p < 0.0001; ns, not significant. […]

CCHFV = type: in vivo, mouse

Structure (SMILES): COC1OC(COS(=O)(=O)O)C(OC2OC(C(=O)O)C(OC3OC(COS(=O)(=O)O)C(OC4OC(C(=O)O)C(OC5OC(COS(=O)(=O)O)C(O)C(O)C5NS(=O)(=O)O)C(OS(=O)(=O)O)C4O)C(OS(=O)(=O)O)C3NS(=O)(=O)O)C(O)C2OS(=O)(=O)O)C(O)C1NS(=O)(=O)O (stereo not drawn) [CV122]
- effect on survival of RAW264.7 macrophages (RAW264.7 macrophages): no significant inhibitory effect
- ICAM-1 and VCAM-1 expression (ICAM-1 and VCAM-1): reversed after CV122 treatment
- HPA levels in the lungs (CLP-induced septic mice): significantly reduced the HPA levels in the lungs
- TNF-α, IL-6 and IL-1β in serum and lungs (CLP-induced septic mice): reduced the level
- body weight course (CLP-induced septic mice): gradually normalized the septic mice
- cell surface glycocalyx in lungs (WGA) (CLP-induced septic mice): protected cell surface glycocalyx
- lung pathological damage (HE) (CLP-induced septic mice): significantly rescued
- survival rate (CLP-induced septic mice; sc): 80%
- HPA overexpression in the lungs (HPA): significantly reduced the HPA overexpression
- effect on survival of HUVECs (HUVECs): no significant inhibitory effect
- TNF-α, IL-6 and IL-1β levels in serum and lungs (TNF-α, IL-6, IL-1β; 40 mg kg−1, 30 min after LPS 20 mg kg−1 i.p., 3 h after LPS, vs LPS group): significantly suppressed
- TNF-α, IL-6 and IL-1β in tissue extracts of brains, hearts, livers, kidneys and spleens (TNF-α, IL-6, IL-1β; 40 mg kg−1, 3 h after LPS): significantly inhibited the secretion of proinflammatory cytokines in these organs to a greater extent than Suramin
- TNF-α levels in serum (TNF-α, IL-6, IL-1β; candidate screening in LPS-induced septic mouse model (Figure 1C,D)): significantly decreasing
- percentage of M1 macrophages in kidneys and spleen [1]: significantly inhibited the percentage of M1 macrophages
- percentage of M1 macrophages (F4/80+CD86+) in the lung ([1]; **p < 0.01): significantly reduced by CV122
- spleen pathological damage (H&E) (CCHFV; 7 d after infection): spleen congestion and edema were slightly reduced
- body weight (CCHFV; CCHFV-infected IFNAR−/− mice): slightly higher body weights
- survival rate (CCHFV; CV122 20 mg kg−1 s.c. at 2, 3, 4 and 5 days after infection, IFNAR−/− mice, 8 day or longer observation, control 20%): 80%
